Consider eight molecules from US20100137324A1, “RHO-KINASE INHIBITORS” (priority 2001, published 2010).

The term melting point denotes the temperature of the solid-liquid transition.

Each structure is given as a SMILES string.

Regarding `O=C(Nc1ccncc1)c1nc(Nc2ccc3[nH]ncc3c2)c2ccccc2n1` [Example 131, 4-(1H-indazol-5-ylamino)-N-(4-pyridinyl)-2-quinazolinecarboxamide], the melting point was in the range of 295 to 298 °C.

Take `CNC(=O)c1nc(Nc2ccc3[nH]ncc3c2)c2ccccc2n1` [Example 137, 4-(1H-indazol-5-ylamino)-N-methyl-2-quinazolinecarboxamide]: the melting point lay in the range of 283 to 286 °C. In the case of `O=C(NC1CCCC1)c1nc(Nc2ccc3[nH]ncc3c2)c2ccccc2n1` [Example 134, N-cyclopentyl-4-(1H-indazol-5-ylamino)-2-quinazolinecarboxamide] it was 237 to 239 °C. The molecule `O=C(NC1CCCCC1)c1nc(Nc2ccc3[nH]ncc3c2)c2ccccc2n1` [Example 133, N-cyclohexyl-4-(1H-indazol-5-ylamino)-2-quinazolinecarboxamide] displayed a melting point of 215 to 217 °C. The molecule `O=C(Nc1ccccn1)c1nc(Nc2ccc3[nH]ncc3c2)c2ccccc2n1` [Example 135, 4-(1H-indazol-5-ylamino)-N-(2-pyridinyl)-2-quinazolinecarboxamide] registered a melting point of 297 to 300 °C. `COc1ccc(NC(=O)c2nc(Nc3ccc4[nH]ncc4c3)c3ccccc3n2)cc1` [Example 132, 4-(1H-indazol-5-ylamino)-N-(4-methoxyphenyl)-2-quinazolinecarboxamide] showed a melting point of 210 to 213 °C. `Cc1nc(Nc2ccc3[nH]ncc3c2)c2ccccc2n1` [Example 139, N-(1H-indazol-5-yl)-N-(2-methyl-4-quinazolinyl)amine]: the melting point was 282 to 288 °C.

The molecule `O=C(Nc1cnc2ccccc2c1)c1nc(Nc2ccc3[nH]ncc3c2)c2ccccc2n1` [Example 136, 4-(1H-indazol-5-ylamino)-N-(3-quinolinyl)-2-quinazolinecarboxamide] returned a melting point of 249 to 252 °C.
